US9662461B2, “Dry powder drug delivery system and methods” (MannKind Corporation, priority 2008, dated 2017)

What was measured:
[1] = VMGD and container emptying by laser diffraction, DPI 2 vs predicate inhaler (Example 6); assay type: physicochemical; settings: 56% trans, SSA 55, 4 kPa
Source text: Laser diffraction of dry powder formulations emitted from dry powder inhalers is a common methodology employed to characterize the level of de-agglomeration subjected to a powder. The methodology indicates a measure of geometric size rather than aerodynamic size as occurring in industry standard impaction methodologies. Typically, the geometric size of the emitted powder includes a volumetric distribution characterized by the median particle size, VMGD. Importantly, geometric sizes of the emitted particles are discerned with heightened resolution as compared to the aerodynamic sizes provided by impaction methods. Smaller sizes are preferred and result in greater likelihood of individual particles being delivered to the pulmonary tract. Thus, differences in inhaler de-agglomeration and ultimate performance can be easier to resolve with diffraction. In these experiments, an inhaler as specified in Example 3 and a predicate inhaler are tested with laser diffraction at pressures analogous to actual patient inspiratory capacities to determine the effectiveness of the inhalation system to de-agglomerate powder formulations. […] Reported in Table 5 are a VMGD and an efficiency of the container emptying during the testing.

[2] = In vitro powder performance DPI 2 vs MEDTONE delivery system (Example 7); assay type: physicochemical; settings: 4 kPa
Source text: In vitro powder performance for these systems was compared for various parameter of inhaler performance. For DPI 2 a single discharge per cartridge was used as compared to two discharges per cartridge in the MEDTONE® system.
Particle sizing by laser diffraction and quantification of emitted mass as described above were used in these experiments. A laser diffraction instrument (Sympatec HELOS) was adapted with a novel pressurized inhaler chamber to facilitate analysis of powder plumes. MTDS cartridges were discharged twice per determination versus once with DPI 2.

[3] = Pharmacokinetics of FDKP inhaled as FDKP inhalation powder (Example 8); assay type: in vivo, healthy volunteers; settings: for AVG mean AUC fdkp per emitted fdkp mass: n=10
Description: The MEDTONE® inhaler system was used for comparison.
To generate a “hard” inhalation, the subject provided a nominal inhalation time of about 6.5 seconds and a peak pressure of 7 kPa. Conversely, to generate an “easy” inhalation, the subject provided a nominal inhalation time of about 6.5 seconds and a peak pressure of 5 kPa. Coupled with the inhalation monitoring apparatus, gravimetric assessment of the powder mass discharged from the cartridge was performed. This enabled a linkage between inhalation maneuver during dosing, cartridge discharge mass and pharmacokinetic profile determinations for each subject.
The study was an open-label, crossover, 2-part study in healthy volunteers.
Part 2 was carried out as a 2-part, 2-way crossover study for evaluating the effect of flow rate (15 versus 30 LPM) and inhalation time (3 versus 6 seconds). For each parameter tested (i.e., flow rate, and inhalation time), ten subjects were crossed over for each parameter with 20 subjects total for all of the parameters. Pharmacokinetics of FDPK was assessed with each treatment from blood samples taken from the subjects.

[4] = DPI 2, 10 mg fill, single discharge, n=15
[5] = MEDTONE (MTDS), 10 mg fill FDKP, two discharges, n=30

## O=C(O)/C=C/C(=O)NCCCCC1NC(=O)C(CCCCNC(=O)/C=C/C(=O)O)NC1=O (stereo not shown) [FDKP, 3,6-bis(N-fumaryl-4-aminobutyl)-2,5-diketopiperazine]
[1]
  VMGD: 6.800 micron
[2]; [4]
  Ave. Geometric SD: 3.79 μm
  Ave. VMGD: 6.84 μm
[2]; [5]
  Ave. Geometric SD: 2.94 μm
  Ave. VMGD: 21.21 μm
[3]; DPI 1 vs MEDTONE inhaler
  delivery of FDKP into the systemic circulation, DPI 1 better than MEDTONE: about 30%
[3]; FDKP 10 mg
  increase in FDKP plasma AUC, DPI 1 over MEDTONE: ~2 fold
[3]; Part 1, DPI 1, cartridge 10 mg fdkp
  AVG mean AUC fdkp per emitted fdkp mass: 3495 ng * min/mL * mg fdkp
[3]; Part 1, MT (MEDTONE), two inhalations, cartridge 10 mg fdkp
  AVG mean AUC fdkp per emitted fdkp mass: 1934 ng * min/mL * mg fdkp
[3]; Part 2, DPI 1, 10 mg, long inhalation time
  AVG mean AUC fdkp per emitted fdkp mass: 3289 ng * min/mL * mg fdkp
[3]; Part 2, DPI 1, 10 mg, short inhalation time
  AVG mean AUC fdkp per emitted fdkp mass: 3310 ng * min/mL * mg fdkp
[3]; Part 3, DPI 1, 10 mg, easy inhalation effort
  AVG mean AUC fdkp per emitted fdkp mass: 3925 ng * min/mL * mg fdkp
[3]; Part 3, DPI 1, 10 mg, hard inhalation effort
  AVG mean AUC fdkp per emitted fdkp mass: 3867 ng * min/mL * mg fdkp
